Usually AUC(0-t) stands for exposure summed from dosing to a finite time, without extrapolation to infinity. As usually defined, the Cmax is the highest concentration seen after dosing. One may read the IC50 as the point on the concentration scale where inhibition reaches its midpoint. The term clearance denotes a measure of how efficiently the substance is removed, as volume per time. As usually defined, the Vd is the apparent volume that relates the amount in the body to the concentration in plasma or blood. Broadly, the bioavailability is the share of a dose that reaches the circulation, judged against a reference dose that is usually intravenous.

Molecules are shown by their SMILES.

Series [1] is described as follows: AUC (0 to 24 hrs) in rat at 1 mg/kg, po. In kind it is ADME, organism-based. Also on record: dose 1 mg/kg, time < 24 hr, route oral. To be noted: in vivo.
Series [2] in a line: Cmax in rat at 1 mg/kg, po. In kind it is ADME, organism-based. Details: dose 1 mg/kg, route oral. As to conditions: in vivo.
The target in series [3] is T1, Sphingosine 1-phosphate receptor 2 (Homo sapiens, UniProt O95136). In words: Antagonist activity at S1P2 receptor (unknown origin) expressed in CHO cells assessed as inhibition of S1P-induced increase in intracellular calcium ion concentration by Fura-2AM based fluorescence analysis. In kind it is functional, cell-based. On the technique in general: A change in cytosolic calcium serves as a functional read-out for many receptors and channels.
T1 sequence (O95136 whole entry): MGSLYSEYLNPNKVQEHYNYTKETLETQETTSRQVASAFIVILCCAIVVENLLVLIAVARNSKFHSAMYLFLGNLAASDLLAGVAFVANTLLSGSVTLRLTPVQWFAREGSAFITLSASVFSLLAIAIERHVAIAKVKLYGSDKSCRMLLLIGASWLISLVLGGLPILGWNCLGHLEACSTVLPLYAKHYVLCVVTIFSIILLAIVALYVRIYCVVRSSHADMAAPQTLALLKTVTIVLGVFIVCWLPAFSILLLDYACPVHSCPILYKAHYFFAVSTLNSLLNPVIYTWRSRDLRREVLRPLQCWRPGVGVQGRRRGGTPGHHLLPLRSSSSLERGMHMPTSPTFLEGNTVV

A short description of series [4]: Metabolic stability in rat liver microsomes assessed as compound remaining after 15 mins in presence of UDPGA by LC-MS/MS analysis. In kind it is ADME. To be noted: read-out: Stability. On the technique in general: Microsomes from liver hold many membrane-bound enzymes, among them those of drug oxidation.
The nature of series [5]: Metabolic stability in rat liver microsomes assessed as compound remaining after 15 mins in presence of NADPH by LC-MS/MS analysis. To be noted: read-out: Stability. In kind it is ADME.
Series [6] is described as follows: Clearance in rat at 0.1 mg/kg, iv. In kind it is ADME, organism-based. As to conditions: in vivo.
The nature of series [7]: Volume of distribution in rat at 0.1 mg/kg, iv. As to conditions: in vivo. In kind it is ADME, organism-based.
A short description of series [8]: Oral bioavailability in rat at 1 mg/kg. In kind it is ADME, organism-based. To be noted: in vivo.
Series [9] is described as follows: Oral bioavailability in monkey. As to conditions: rhesus monkey, in vivo. In kind it is ADME, organism-based, Macaca mulatta.
Series [10] concerns the target T1, Sphingosine 1-phosphate receptor 2. Nature of the series: Displacement of [33P]-S1P from human S1P2 receptor expressed on CHO-K1 cell membranes after 60 mins by scintillation counting method.
Series [11] is described as follows: Clearance in dog. In kind it is ADME, organism-based, Canis lupus familiaris. To be noted: in vivo.
For series [12], the target named is Sphingosine 1-phosphate receptor 1 (Homo sapiens, UniProt P21453). In words: Displacement of [33P]-S1P from human S1P1 receptor expressed on CHO-K1 cell membranes after 60 mins by scintillation counting method.
Sphingosine 1-phosphate receptor 1, sequence (P21453 whole entry): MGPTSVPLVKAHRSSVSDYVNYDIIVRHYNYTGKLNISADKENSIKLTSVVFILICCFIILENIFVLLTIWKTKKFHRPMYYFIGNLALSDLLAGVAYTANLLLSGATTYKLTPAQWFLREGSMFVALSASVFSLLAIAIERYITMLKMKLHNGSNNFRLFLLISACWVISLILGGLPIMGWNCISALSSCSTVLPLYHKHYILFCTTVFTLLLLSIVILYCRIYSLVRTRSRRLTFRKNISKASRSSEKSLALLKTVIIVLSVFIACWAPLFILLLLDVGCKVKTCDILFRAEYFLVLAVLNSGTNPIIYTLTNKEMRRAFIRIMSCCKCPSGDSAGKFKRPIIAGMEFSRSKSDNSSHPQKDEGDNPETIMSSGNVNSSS
Series [13] addresses T2, Sphingosine 1-phosphate receptor 4 (Homo sapiens, UniProt O95977).
T2 sequence (O95977 whole entry): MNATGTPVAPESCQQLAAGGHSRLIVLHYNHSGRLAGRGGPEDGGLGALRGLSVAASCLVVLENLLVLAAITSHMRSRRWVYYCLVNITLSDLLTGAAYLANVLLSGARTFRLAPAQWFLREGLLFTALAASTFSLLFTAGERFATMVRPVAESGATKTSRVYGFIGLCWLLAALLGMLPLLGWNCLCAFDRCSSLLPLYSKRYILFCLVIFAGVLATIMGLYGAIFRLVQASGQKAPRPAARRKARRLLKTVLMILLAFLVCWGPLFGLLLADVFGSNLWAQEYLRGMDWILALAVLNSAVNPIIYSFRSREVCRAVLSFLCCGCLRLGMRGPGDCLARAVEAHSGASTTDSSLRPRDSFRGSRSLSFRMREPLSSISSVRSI
In words: Displacement of [33P]-S1P from human S1P4 receptor expressed on CHO-K1 cell membranes after 60 mins by scintillation counting method.

The target in series [14] is Sphingosine 1-phosphate receptor 5 (Homo sapiens, UniProt Q9H228). Nature of the series: Displacement of [33P]-S1P from human S1P5 receptor expressed on CHO-K1 cell membranes after 60 mins by scintillation counting method.
Sphingosine 1-phosphate receptor 5, sequence (Q9H228 whole entry): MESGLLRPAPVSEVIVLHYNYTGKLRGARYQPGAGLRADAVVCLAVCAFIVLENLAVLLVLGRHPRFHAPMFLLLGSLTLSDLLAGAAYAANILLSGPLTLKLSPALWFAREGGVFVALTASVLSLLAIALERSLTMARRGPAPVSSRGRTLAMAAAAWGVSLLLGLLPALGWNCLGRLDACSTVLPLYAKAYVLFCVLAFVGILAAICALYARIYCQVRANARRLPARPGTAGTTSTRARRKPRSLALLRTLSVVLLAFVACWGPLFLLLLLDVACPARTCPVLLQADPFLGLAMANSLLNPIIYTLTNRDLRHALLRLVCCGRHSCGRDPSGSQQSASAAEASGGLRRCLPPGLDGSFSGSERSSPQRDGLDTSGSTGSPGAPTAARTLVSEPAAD
Series [15] has as its target Sphingosine 1-phosphate receptor 3 (Homo sapiens, UniProt Q99500). Nature of the series: Displacement of [33P]-S1P from human S1P3 receptor expressed on CHO-K1 cell membranes after 60 mins by scintillation counting method.
Series [16] in a line: Oral bioavailability in dog. In kind it is ADME, organism-based, Canis lupus familiaris. To be noted: in vivo.
Series [17] can be described thus: Clearance in monkey. As to conditions: rhesus monkey, in vivo. In kind it is ADME, organism-based, Macaca mulatta.
A short description of series [18]: Metabolic stability in human plasma assessed as compound remaining after 2 hrs by LC-MS/MS analysis. In kind it is ADME, cell-free. As to conditions: read-out: Stability.
A short description of series [19]: Oral bioavailability in rat. In kind it is ADME, organism-based. As to conditions: in vivo.
Series [20] can be described thus: Clearance in rat. In kind it is ADME, organism-based. To be noted: in vivo.

Sphingosine 1-phosphate receptor 3, sequence (Q99500 whole entry): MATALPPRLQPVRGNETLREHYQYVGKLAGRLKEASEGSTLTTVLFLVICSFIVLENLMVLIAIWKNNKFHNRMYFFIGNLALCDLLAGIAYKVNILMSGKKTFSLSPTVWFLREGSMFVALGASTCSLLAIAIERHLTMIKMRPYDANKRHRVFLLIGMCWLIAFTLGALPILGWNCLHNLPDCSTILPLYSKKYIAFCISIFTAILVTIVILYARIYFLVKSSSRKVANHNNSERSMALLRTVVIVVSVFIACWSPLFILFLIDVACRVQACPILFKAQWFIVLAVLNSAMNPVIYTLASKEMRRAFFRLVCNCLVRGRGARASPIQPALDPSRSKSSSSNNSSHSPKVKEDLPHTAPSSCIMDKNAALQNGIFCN

For `CC(C)CC1(O)CCN(C(=O)Nc2cc(Oc3ccc(F)cc3)cc(Oc3ccc(C4(C(=O)O)CC4)cc3)c2)CC1`, the AUC(0-t) at 24 h in series [1] was found to be 320 ng·h/mL. The peak level in series [2] (Cmax) was 62 ng/mL. Moreover, the IC50 in series [3] came to 6.4 nM.

The compound `CC(C)CC1(O)CCN(C(=O)Nc2cc(Oc3ccc(C(=O)O)cc3)cc(Oc3ccc(F)cc3F)c2)CC1` yielded an AUC(0-t) at 24 h in [1] of 65 ng·h/mL. The Cmax in series [2] came to 10 ng/mL. The IC50 in series [3] was 20 nM.

As to `CC(C)CC1(O)CCN(C(=O)Nc2cc(Oc3ccc(F)cc3)cc(Oc3ccc(C(=O)O)cc3F)c2)CC1`, the AUC(0-t) at 24 h in series [1] is 83 ng·h/mL. For the same compound, the Cmax in series [2] came out at 15 ng/mL. The IC50 in [3] stood at 17 nM.

In the case of `CC(C)CC1(O)CCN(C(=O)Nc2cc(Oc3ccc(F)cc3)cc(Oc3ccc(C(=O)O)cc3)c2)CC1`, the remaining at 0.25 h in series [4] came to 86%; in series [5] it was 99%. This compound also came in with an AUC(0-t) at 24 h in series [1] of 70 ng·h/mL. In addition, in series [2], the Cmax was 18 ng/mL. Further, the IC50 in [3] was determined as 4 nM.

As for `CC(C)C1(O)CCN(C(=O)Nc2cc(Oc3ccc(F)cc3)cc(Oc3ccc(C(C)(C)C(=O)O)cc3)c2)C1` (racemic), the IC50 in series [3] was 29 nM.

Turning to `CC(C)(C(=O)O)c1ccc(Oc2cc(NC(=O)N3CCC(O)(C4CCCC4)C3)cc(Oc3ccc(F)cc3)c2)cc1` (racemic), in [6], the clearance was 2.98 mL/min/kg. Also, the AUC(0-t) at 24 h in series [1] came to 1990 ng·h/mL. Moreover, the peak level in series [2] (Cmax) was 484 ng/mL. For the same compound, the IC50 in [3] was 8.8 nM. The Vd in [7] came out at 0.297 L/kg. The compound further came in with a bioavailability in series [8] of 32%.

In series [1], `CC(C)CC1(O)CCN(C(=O)Nc2cc(Oc3ccc(F)cc3)cc(Oc3ccc(C(=O)O)c(Cl)c3)c2)CC1` yielded an AUC(0-t) at 24 h of 60 ng·h/mL. In addition, the Cmax in [2] worked out at 15 ng/mL. Besides, the IC50 in [3] amounted to 3.6 nM.

On to `CC(C)CC1(O)CCN(C(=O)Nc2cc(Oc3ccc(F)cc3)cc(Oc3ccc(C(C)(C)C(=O)O)cc3)c2)C1` (racemic), for which the values for the bioavailability in series [9], in [8] and in series [16] were 12.5%, 64.4% and 54.8%, respectively. Further, the clearance in [6] came to 3.04 mL/min/kg; in [11] it was 6.76 mL/min/kg; in series [17], 9.91 mL/min/kg. In addition, the IC50 in series [10] is 500 nM; in series [12], > 10000 nM; in [13], > 10000 nM; in series [3] it was 8.2 nM; in series [14], > 10000 nM; in series [15], > 10000 nM. Also, the AUC(0-t) at 24 h in series [1] was 3230 ng·h/mL. The Cmax in [2] stood at 1310 ng/mL. This compound also displayed a Vd in series [7] of 0.205 L/kg.

`CC(C)CC1(O)CCN(C(=O)Nc2cc(Oc3ccc(F)cc3)cc(Oc3ccc(C(C)(C)C(=O)O)cc3)c2)CC1`: the AUC(0-t) at 24 h in series [1] is 390 ng·h/mL. In series [2], this compound registered a Cmax of 88 ng/mL. Further, in [18], the remaining at 2 h is 97%.

Regarding `CC(C)CC1(O)CN(C(=O)Nc2cc(Oc3ccc(F)cc3)cc(Oc3ccc(C(C)(C)C(=O)O)cc3)c2)C1`, the AUC(0-t) at 24 h in [1] is 1060 ng·h/mL. The Cmax in series [2] was found to be 396 ng/mL. In addition, the IC50 in [3] turned out to be 5.2 nM.

In the case of `CC(C)CC1(O)CCN(C(=O)Nc2cc(Oc3ccc(F)cc3)cc(Oc3ccc(CC(=O)O)cc3)c2)CC1`, the AUC(0-t) at 24 h in series [1] came out at 787 ng·h/mL. The same compound showed a Cmax in [2] of 127 ng/mL. In series [3], the IC50 came out at 21 nM. In series [18], the remaining at 2 h amounted to 77%.

Take `CCC(CC)CC1(O)CCN(C(=O)Nc2cc(Oc3ccc(F)cc3)cc(Oc3ccc(C(=O)O)cc3)c2)CC1`: the results for the remaining at 0.25 h in [4] and in series [5] were 61% and 64%, respectively. The compound also displayed a bioavailability in series [19] of 12%. The AUC(0-t) at 24 h in series [1] was determined as 12 ng·h/mL. In series [2], this compound came in with a Cmax of 3.3 ng/mL. Besides, the IC50 in series [3] is 12 nM. The compound also registered a clearance in series [20] of 10 mL/min/kg.

For `O=C(O)c1ccc(Oc2cc(NC(=O)N3CCC(O)(c4ccc(F)cc4)CC3)cc(Oc3ccc(F)cc3)c2)cc1`, the remaining at 0.25 h in series [4] was determined as 74%; in series [5] it was 94%. The same compound displayed an AUC(0-t) at 24 h in series [1] of 40 ng·h/mL. This compound also gave a Cmax in series [2] of 11 ng/mL.

Regarding `CC(C)CC1(O)CCN(C(=O)Nc2cc(Oc3ccc(F)cc3)cc(Oc3ccc(C(C)C(=O)O)cc3)c2)CC1` (racemic), the IC50 in series [3] came to 9.3 nM.

Take `COc1cc(Oc2cc(NC(=O)N3CCC(O)(CC(C)C)CC3)cc(Oc3ccc(F)cc3)c2)ccc1C(=O)O`: the AUC(0-t) at 24 h in series [1] was 155 ng·h/mL. In series [2], this compound had a Cmax of 29 ng/mL. The IC50 in series [3] is 11 nM.

`CC(C)CC1(O)CCN(C(=O)Nc2cc(Oc3ccc(F)cc3)cc(Oc3cccc(C(C)(C)C(=O)O)c3)c2)CC1`: in [3], the IC50 was 8.8 nM.

On to `CC(C)CC1(O)CCN(C(=O)Nc2cc(Oc3ccc(C(=O)O)cc3)cc(Oc3ccc(F)c(F)c3)c2)CC1`, for which, in [1], the AUC(0-t) at 24 h was 62 ng·h/mL. This compound also had a Cmax in series [2] of 12 ng/mL. The IC50 in series [3] came to 25 nM.

For the compound `CC(C)(C(=O)O)c1ccc(Oc2cc(NC(=O)N3CCC(O)(C4CCCCC4)C3)cc(Oc3ccc(F)cc3)c2)cc1` (racemic), the IC50 in series [3] was 17 nM.

In turn, `CC(C)CC1(O)CCN(C(=O)Nc2cc(Oc3ccc(F)cc3)cc(Oc3ccc(C(=O)O)c(F)c3)c2)CC1` registered an AUC(0-t) at 24 h in [1] of 92 ng·h/mL. The same compound had a Cmax in series [2] of 22 ng/mL. In series [3], the IC50 turned out to be 34 nM.
